Assay results taken from patent US20250129095A1, “ANNULATED 2-AMINO-3-CYANO THIOPHENES AND DERIVATIVES FOR THE TREATMENT OF CANCER” (Boehringer Ingelheim Int'l GmbH Corp., priority 2021, published 2025).
pIC50: −log10 of the molar value. ≈ marks a conversion by molar mass, not a printed value. Read-outs that look alike come from different tables or passages of the source.

Columns and labels:
[1] = molecular target: KRAS G12C Ba/F3 (Homo sapiens, UniProt P01116, G12C, cells depend on it); experiment: Ba/F3 proliferation assay, KRAS G12C; assay type: cell-based; details: 72 h, AlamarBlue, read-out: KRAS G12C Ba/F3 IC50
Protocol: Plasmids containing KRASG12 mutants(i.e. G12D, G12C, G12V) are obtained from GeneScript. To generate KRASG12-dependent Ba/F3 models, Ba/F3 cells are transduced with retroviruses containing vectors that harbor KRASG12 isoforms. Platinum-E cells (Cell Biolabs) are used for retrovirus packaging. Retrovirus is added to Ba/F3 cells. To ensure infection, 4 μg/mL polybrene is added and cells are spinfected. […] Cells with an infection efficiency of 10% to 20% are further cultivated and puromycin selection with 1 μg/mL is initiated. As a control, parental Ba/F3 cells are used to show selection status. Selection is considered successful when parental Ba/F3 cells cultures died. To evaluate the transforming potential of KRASG12 mutations, the growth medium is no longer supplemented with IL-3. Ba/F3 cells harboring the empty vector are used as a control. Approximately ten days before conducting the experiments, puromycin is left out.
Compounds are added using an Access Labcyte Workstation with a Labcyte Echo 550 or 555 accoustic dispenser. All treatments are performed in technical duplicates. […] AlamarBlue™ (ThermoFisher), a viability stain, is added and fluorescence measured in the PerkinElmer Envision HTS Multilabel Reader. The raw data are imported into and analyzed with the Boehringer Ingelheim proprietary software MegaLab (curve fitting based on the program PRISM, GraphPad Inc.).

[2] = tested on: NCI-H358 cells; experiment: NCI-H358 CTG proliferation assay (120 h) (NSCLC, G12C); assay type: cell-based; details: Homo sapiens
Protocol: Additional Proliferation Assays with Mutant Cancer Cell Lines • NCI-H358 CTG proliferation assay (120 h) (NSCLC, G12C)
NCI-H358 cells (ATCC No. CRL-5807) are dispensed into black 384-well plates, flat and clear bottom (Greiner, PNr. 781091) at a density of 200 cells per well in 60 μl RPMI-1640 ATCC-Formulation (Gibco #A10491)+10% FCS (fetal calf serum). […] For the TO time point measurement, untreated cells are analyzed at the time of compound addition. Plates are incubated for 120 h, and cell viability is measured using CellTiter-Glo luminescent cell viability reagent (Promega product code G7570). Viability (stated as percent of control) is defined as relative luminescence units RLU of each well divided by the RLU of cells in DMSO controls.

[3] = tested on: NCI-H2122 cells; experiment: NCI-H2122 CTG proliferation assay (120 h) (NSCLC, G12C); assay type: cell-based; details: Homo sapiens
Protocol: The CTG assay is designed to measure quantitatively the proliferation of NCI-H2122 cells (ATCC CRL-5985), using the CellTiter Glow Assay Kit (Promega G7571). Cells are grown in RPMI medium (ATCC) supplemented with Fetal Calf Serum (Life Technologies, Gibco BRL, Cat. No. 10270-106). On “day 0” 200 NCI-H2122 cells are seeded in 60 μL RPMI ATCC+10% FCS+Penstrep in a black 384-well plate, flat and clear bottom (Greiner, PNr. 781091). Cells are then incubated in the plates at 37° C. in a CO2 incubator overnight. On day 1, compounds (10 mM stock in DMSO) are added with the ECHO acoustic liquid handler system (Beckman Coulter), including DMSO controls. Plates are incubated for 120 h, and cell viability is measured using CellTiter-Glo luminescent cell viability reagent (Promega product code G7570). Viability (stated as percent of control) is defined as relative luminescence units RLU of each well divided by the RLU of cells in DMSO controls. […] values are determined from viability measurements by non-linear regression using a four parameter model. • AsPC-1 CTG proliieradon assay (120 h) (pancreatic cancer, G12D)

[4] = tested on: LOVO cells; experiment: LOVO CTG proliferation assay (120 h) (CRC, G13D); assay type: cell-based; details: Homo sapiens
Protocol: LOVO cells (ATCC CCL-229) are dispensed into 384-well plates, flat and clear bottom (Greiner, PNr. 781091) at a density of 1000 cells per well in 60 μL DMEM (Sigma D6429)+10% Fetal Calf Serum (HyClone, PNr.: SH30084.03) and incubated at 37° C. in a CO2 incubator overnight. The next day, compounds (10 mM stock in DMSO) are added with the ECHO acoustic liquid handler system (Beckman Coulter), including DMSO controls. Plates are incubated for 120 h, and cell viability is measured using CellTiter-Glo luminescent cell viability reagent (Promega product code G7570). Viability (stated as percent of control) is defined as relative luminescence units RLU of each well divided by the RLU of cells in DMS0 controls. IC50 values are determined from viability measurements by non-linear regression using a four-parameter model.

[5] = Solubility measurement (DMSO solution precipitation method); assay type: physicochemical; details: aqueous buffer, kinetic from dmso stock
Protocol: The DMSO solution is diluted with an aqueous medium (McIlvaine buffer with pH=4.5 or 6.8) to a final concentration of 250 μM. After 24 h of shaking at ambient temperature a potentially formed precipitate is removed by filtration. The concentration of the test compound in the filtrate is determined by LC-UV methods by calibrating the signal to the signal of a reference solution with complete dissolution of the test compound in acetonitrile/water (1:1) with known concentration.

[6] = McIlvaine buffer pH 4.5, 24 h, read-out: Solubility [μg/ml] pH 4.5
[7] = McIlvaine buffer pH 6.8, 24 h, read-out: Solubility [μg/ml] pH 6.8

Sequence of KRAS G12C Ba/F3 (P01116 whole entry G12C, canonical isoform): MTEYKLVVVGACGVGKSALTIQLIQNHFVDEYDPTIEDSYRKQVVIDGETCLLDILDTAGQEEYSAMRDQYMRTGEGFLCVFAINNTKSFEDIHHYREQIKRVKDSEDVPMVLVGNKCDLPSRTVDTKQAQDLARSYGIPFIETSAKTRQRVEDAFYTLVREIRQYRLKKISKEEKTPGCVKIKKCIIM

Structure (SMILES) | GI50 [1] | pIC50 [2] | pIC50 [3] | pIC50 [4] | solubility at 24 h [5, 6] | solubility at 24 h [5, 7]
C[C@H](Oc1cc(Nc2ncccn2)nc(-c2noc3c2CCC[C@@]32CCCc3sc(N)c(C#N)c32)n1)[C@@H]1CCCN1C [II-17] | 19 nM | 6.11 | 5.78 | 6.53 | 67 µg/mL (≈ 115 µM) | < 1 µg/mL
C[C@H](Oc1cc(OCC2(N(C)C)COC2)nc(-c2onc3c2CCC[C@@]32CCCc3sc(N)c(C#N)c32)n1)[C@@H]1CCCN1C [Example I-8] | 51 nM | 7.12 | 5.90 | 7.57 | > 143 µg/mL | > 125 µg/mL
C[C@H]1CN(C)CCCN1c1cc(O[C@@H]2CNC2(C)C)nc(-c2noc3c2CCC[C@@]32CCCc3sc(N)c(C#N)c32)n1 [II-28] | 2080 nM | 6.02 | 5.01 | 5.47 | > 151 µg/mL | > 146 µg/mL
C[C@H](Oc1cc(Oc2nccs2)nc(-c2noc3c2CCC[C@@]32CCCc3sc(N)c(C#N)c32)n1)[C@@H]1CCCN1C [II-2] | 5 nM | 6.94 | 7.11 | 7.28 | > 109 µg/mL | < 1 µg/mL
C[C@H](Oc1cc(Nc2nccs2)nc(-c2noc3c2CCC[C@@]32CCCc3sc(N)c(C#N)c32)n1)[C@@H]1CCCN1C [II-12] | 44 nM | 6.09 | 5.76 | 5.95 | 2 µg/mL (≈ 3.4 µM) | < 1 µg/mL
C[C@H](Oc1cc(N[C@H]2CCOC2)nc(-c2onc3c2CCC[C@@]32CCCc3sc(N)c(C#N)c32)n1)[C@@H]1CCCN1C [Example I-4] | 83 nM | 5.64 | 5.62 | 6.24 | > 135 µg/mL | 107 µg/mL (≈ 186 µM)
C[C@H](Oc1cc(Nc2ncco2)nc(-c2noc3c2CCC[C@@]32CCCc3sc(N)c(C#N)c32)n1)[C@@H]1CCCN1C [II-13] | 17 nM | 6.84 | 6.27 | 6.30 | > 157 µg/mL | 44 µg/mL (≈ 76.8 µM)
CO[C@@H]1C[C@@H]([C@H](C)Oc2cc(O[C@@H]3CNC3(C)C)nc(-c3noc4c3CCC[C@@]43CCCc4sc(N)c(C#N)c43)n2)N(C)C1 [II-30] | 219 nM | 7.07 | 5.91 | 6.89 | > 171 µg/mL | > 165 µg/mL
C[C@H](Oc1cc(O[C@@H]2CNC2(C)C)nc(-c2noc3c2CCC[C@@]32CCCc3sc(N)c(C#N)c32)n1)[C@@H]1C[C@@H](F)CN1C [II-31] | 203 nM | 6.92 | 5.92 | 6.69 | > 157 µg/mL | > 143 µg/mL
C[C@H](Oc1cc(Sc2ncccn2)nc(-c2onc3c2CCC[C@@]32CCCc3sc(N)c(C#N)c32)n1)[C@@H]1CCCN1C [Example I-7] | 75 nM | 5.25 | 5.44 | 5.49 | > 146 µg/mL | 70 µg/mL (≈ 117 µM)

Results, then the compound that gave them:

GI50 [1] | pIC50 [2] | pIC50 [3] | pIC50 [4] | solubility at 24 h [5, 6] | solubility at 24 h [5, 7] | Structure (SMILES)
592 nM | 5.93 | 5.87 | 6.30 | > 145 µg/mL | > 146 µg/mL | C[C@H](Oc1cc(O[C@H]2CNC(C)(C)C2)nc(-c2noc3c2CCC[C@@]32CCCc3sc(N)c(C#N)c32)n1)[C@@H]1CCCN1C (single isomer, unassigned) [II-8]
218 nM | 5.49 | 5.84 | 6.46 | > 161 µg/mL | > 164 µg/mL | C[C@H](Oc1cc(O[C@H]2CN(C)C(C)(C)C2)nc(-c2noc3c2CCC[C@@]32CCCc3sc(N)c(C#N)c32)n1)[C@@H]1CCCN1C [II-19]
12 nM | 6.71 | 6.09 | 7.03 | 80 µg/mL (≈ 139 µM) | < 1 µg/mL | C[C@H](Oc1cc(O[C@H]2CCOC2)nc(-c2noc3c2CCC[C@@]32CCCc3sc(N)c(C#N)c32)n1)[C@@H]1CCCN1C [II-4]
17 nM | 6.47 | 6.06 | 6.93 | > 140 µg/mL | 108 µg/mL (≈ 191 µM) | COCCOc1cc(O[C@@H](C)[C@@H]2CCCN2C)nc(-c2noc3c2CCC[C@@]32CCCc3sc(N)c(C#N)c32)n1 [II-5]
11 nM | 6.78 | 5.78 | 6.11 | > 121 µg/mL | > 119 µg/mL | C[C@H](Oc1cc(OCCO)nc(-c2noc3c2CCC[C@@]32CCCc3sc(N)c(C#N)c32)n1)[C@@H]1CCCN1C [II-6]
